The values below are quoted from earlier work in US9782362B2, “Uses of compositions containing a roasted extract and xanthohumol” (TA-XAN AG, priority 2012, dated 2017).

The structures appear in SMILES notation. Where two headings read alike, the source gives them in different places.

The conditions of series [1]: up to 100 mg/kg/day per os, 4 weeks.
The subject of series [2] is Human breast tumor cells (MXF7 cells). As to conditions: daily dose of 4-6 mg/kg in the drinking water; not validated statistically at the 95% level.
The conditions of series [3]: 4 weeks, female C3H-mice.
Series [4] concerns Estrogen. As to conditions: oral three×100 mg/kg over three days.
Series [5] deals with Human breast tumor cells (MX-1 cells). As to conditions: daily subcutaneous 1000 mg/kg.
In series [6] the test system is angiogenesis. As to conditions: approx. 1 mg/kg per day three days per os; 4-6 mg/kg per day 60 days drinking water; or 1000 mg/kg subcutaneously.
The test system of series [7] is Diacylglycerol acetyltransferase (DGAT). As to conditions: in vitro.
Series [8] relates to human Kaposi's sarcoma (KS-IMM) cells. As to conditions: approx. 1.2 mg/kg for 23 days.
For series [9] the following is noted: 100 mg/kg/day in drinking water for four weeks, then mated.
Series [10] deals with apoptosis. As to conditions: 4-6 mg/kg per day for 60 days in the drinking water.
For series [11] the following is noted: rat.
Series [12] has as its system bone-resorbing cells (osteoclasts). As to conditions: in vitro.
Series [13] concerns inflammation. As to conditions: oral 4-6 mg/kg per day for 60 days in drinking water.
Series [14] has as its system bacterial culture. As to conditions: depending on doses ranging between 0.01 to 10 μM.
The test system of series [15] is Cells in culture or rat liver. As to conditions: depending on doses ranging between 0.01 to 10 μM.
The conditions of series [16]: mice.
For series [17] the following is noted: direct chemical interaction.

Regarding `COc1cc(O)c(CC=C(C)C)c(O)c1C(=O)/C=C/c1ccc(O)cc1` [xanthohumol], the toxicity result in series [1] is recorded as “no indication of toxicity”. The “growth of the tumor inhibited” value is reported as 35% in [2], 46% in series [5] (in one week), 83% in series [5] (in two weeks) and 68% in series [8]. In addition, in series [3] (approximately 28 mg/kg/day in drinking water), the “development of weight, appearance of organs, haematologically clinical parameters, liver enzyme values, glucose metabolism” value was “uninfluenced”. In addition, in [3] (drinking water 5×10^−4M ad libitum, approximately 28 mg/kg/day), the impact on health result is “no unfavorable impact”. In addition, the anti-estrogen action entry in [4] is given as “possible to detect anti-estrogen action”. In addition, in [6], the anti-angiogenetic action result was “anti-angiogenetic action”. In addition, the DGAT inhibition result in series [7] was “inhibition of this enzyme”. In series [9], the “influence on fertility or lactation” value was “Neither the pre-treatment of the female animals nor of the males had any influence”. For the same compound, the induction of apoptosis entry in series [10] is on record as “could be detected”. Moreover, the “absorption following oral application” value in [11] is on record as “poorly absorbed”. Further, in series [11] (oral), the “state in the excrement” value is given as “largely unchanged”. Further, the “inhibition of the resorption of bone” value in [12] (1 μM) is listed as 35%; in [12] (10 μM), 94%. Also, in [13], the effect on inflammation entry is listed as “inhibitive effect on inflammation was also established in vivo”. Further, the toxic effects result (daily for 4 weeks: 100 mg/kg drinking water, 500 mg/kg in feed, 1000 mg/kg pharyngeal tube) was “no toxic effects whatsoever could be determined”. For the same compound, the “weight of the liver” value (high-dose groups (500 mg/kg/day and 1000 mg/kg/day), due to breakdown of glycogen) is “reduction in the weight of the liver”. The “inhibition of mutagenic damage” value in series [14] is on record as “up to 100%”. For the same compound, in [15], the “inhibition of DNA damage” value is “up to 100%”. In [16], the plasma glucose level result was “reduction”. Besides, in [16], the triglycerides entry is recorded as “reduction”. In addition, in [17], the “interception of DPPH radical” value was “not able to intercept”.
